{
  "source": "patent US10539578B2",
  "about": "“Method for diagnosing, treating, or preventing mood disorders” (JAPAN TOBACCO INC., priority 2015, dated 2020)",
  "molecules": {"B1": {"name": "SITH-1: HHV-6 latent infection protein, 159 amino acids, SEQ ID NO: 1 (protein)", "chain": "MGYEEKVSATGKTRLKILACLIVLILAAAITMLTLEIISNQKRTTTDLEAVTVALKHVSTSLASCTESTTSVHTDSVTSQPTKNKESRKKIEGKSPSWVQALTTASGIILLFCIMMIFITCSWTTEKDTEKSEVQSYASSVETLDSLNEAIIPKTEMNV", "modifications": "Human herpesvirus 6"}},
  "key": {"C57BL/6NCrS1c mice": {"tested_on": "C57BL/6NCrS1c mice", "assay": "Tail suspension test of mice after nasal administration of SITH-1-expressing adenovirus", "format": "in vivo", "settings": "80 mg/L Fluoxetine solution as drinking water from 2 weeks before SITH-1/Adv; test 7 days after nasal administration", "description": "8-week-old C57BL/6NCrS1c mice were raised at a room temperature of 24±1° C. and with lights on for 12 hours and off for 12 hours. After each of the mice was anesthetized with use of isoflurane, SITH-1/Adv or empty/Adv in an amount equivalent to 2.5×10^7 ifu was dropped into the nasal cavity, and was then sucked by the mice along with breathing. Then, the mice were returned to raising cages.\n7 days after the nasal administration of SITH-1/Adv or empty/Adv, a tail suspension test was carried out for 10 minutes. A period of immobility time was measured with use of TailSuspScanTopScan (CleverSys, Inc.). The tail suspension test was carried out by suspending each mouse by taping the tail 1 cm from the end. […] In the experiment, 30 mice were used in each group.\nStatistical significance (* indicates P<0.05, ** indicates P<0.01, and *** indicates P<0.001) was calculated by use of the Mann-Whitney U-test.\nThen, it was studied whether or not an SSRI (selective serotonin reuptake inhibitor), which is an antidepressant, would suppress an increase in immobility time, the increase being caused by the nasal administration of the SITH-1/Adv. 80 mg/L of Fluoxetine solution as drinking water was given to 6-week-old mice, and then the mice were raised for 2 weeks. Then, SITH-1/Adv was nasally administered. 7 days after the nasal administration, a tail suspension test was carried out for 10 minutes. […]"}, "[1]": {"tested_on": "HHV-6 variant B HST strain", "assay": "SITH-1 expression in HHV-6-infected U373 cells in the presence of ganciclovir (Real-time PCR)", "format": "cell-based", "settings": "U373 cultured overnight with drug, one day after infection, relative to ganciclovir(−)", "description": "In the presence of ganciclovir, human glial cell lines (U373) were infected with HHV-6, and SITH-1 expression levels in the infected cells was detected by use of Real-time PCR.\nThe U373 cells were cultured overnight in the presence of ganciclovir at concentrations indicated in the graph. Thereafter, the U373 cells were infected with HHV-6 variant B HST strain, and after one day had passed after this infection, the SITH-1 expression levels in the cells were detected by use of Real-time PCR.\nWith regards to an effective concentration of ganciclovir against HHV-6 variant B, IC50 was presumed to be approximately 10 μM. As such, three concentration levels obtained by 3-fold dilution were used, with 10 μM being a median amount.\nFIG. 25 illustrates suppression of SITH-1 expression by ganciclovir. The vertical axis of FIG. 25 represents SITH-1 mRNA expression level as a ratio, where 1 is the ratio for ganciclovir(−). […] When ganciclovir was used in an amount of 3 μM, 10 μM, and 30 μM, SITH-1 mRNA expression levels were reduced by approximately 20%, 40%, and 80% or more, respectively."}, "HHV-6 variant B": {"tested_on": "HHV-6 variant B", "settings": "presumed value used to choose test concentrations; read-out: IC50 (effective concentration against HHV-6 variant B); cited from earlier work"}, "HHV-6 HST strain": {"tested_on": "HHV-6 HST strain", "assay": "Suppression of SITH-1 expression by heparin and anti-heparan sulfate peptide in HHV-6-infected U373 cells", "format": "cell-based", "settings": "10 unit/mL reacted with U373 cells at 4° C. for 1 hour before infection; MOI 3; 48 hours", "description": "U373 astrocytoma cells were removed with use of trypsin-EDTA, and then a medium (10% FBS-containing DMEM) was added, so that the resultant cells were at 1×10^5 cell/mL. Then, the U373 cells were reacted with 10 unit/mL of Novo-Heparin (Mochida Pharmaceutical Co., Ltd.) or 0.1 mM of anti-3-OS Heparan sulfate (HS) peptide trifluoroacetate salt (Sigma-Aldrich) at 4° C. for 1 hour. The U373 cells were also reacted only with a medium as a control at 4° C. for 1 hour. The resultant cells were washed 3 times with a medium. Then, the U373 cells thus washed were infected with a HHV-6 HST strain virus fluid (2.9×10^6 ffu/ml) at a MOI of 3 by centrifugation. Then, the infected cells were cultured at 37° C. for 48 hours in a CO2 incubator.\nFrom the resultant infected cells, RNA was purified by use of an RNeasy Mini Kit (Qiagen) in accordance with the standard protocol. Then, cDNA was synthesized by use of a PrimeScript RT Reagent Kit (Takara Bio). Finally, expression levels of SITH-1 and GAPDH mRNA were measured by a method similar to that used in the above (3.1)."}, "HEK293 cells": {"tested_on": "HEK293 cells", "assay": "Effect of intracellular protein expression on intracellular calcium concentration (Fluo 4-AM fluorescence)", "format": "cell-based", "settings": "protein temporarily overexpressed in HEK293 cells, 24 hours after transfection; vs control vector (S-C protein: vs SITH-1-expressing cell)", "from_the_text": "In order to express SITH-1, the S-C protein, and the C-S protein intracellularly, pFLAG-CMV-5b (SIGMA-ALDRICH), which is an expression vector for mammals, was used to construct SITH-1/pFLAG-CMV-5b, SITH-CAML/pFLAG-CMV-5b, and CAML-SITH/pFLAG-CMV-5b. In each of the fusion proteins, the spacer (SEQ ID NO: 6) shown in FIG. 1 was inserted between SITH-1 and CAML. pFLAG-CMV-5b was used as a control. Each vector was transfected into HEK293 cells by use of a CalPhos (trademark) Mammalian Transfection Kit (Takara Bio), such that each protein was temporarily overexpressed intracellularly.\nA Calcium Kit II-Fluo 4 (Dojindo) was used to cause cells to take up Fluo 4-AM, 24 hours after transfection. Thereafter, an ArrayScan XTI System (ThermoFisher Scientific) was used to measure fluorescence intensities (λex=485 nm, λem=518) in cells expressing the various proteins (700 to 1300 cells per protein type).\nFIG. 26 indicates the effects of SITH-1 expression, S-C protein expression, and C-S protein expression on intracellular calcium concentration. Median, maximum, and minimum values are indicated as a box-and-whisker plot. Statistical significance (′ indicates P<0.01) was determined via a multiple comparison test using Scheffe's method."}},
  "data": [
    {"molecule": "CNCCC(Oc1ccc(C(F)(F)F)cc1)c1ccccc1", "note": "(stereo not shown) [Fluoxetine]", "values": [
      {"measurement": "immobility time increases in SITH-1/Adv nasal administration mice (tail suspension test)", "setting": "C57BL/6NCrS1c mice", "value": "suppressed"}
    ]},
    {"molecule": "Nc1nc(O)c2ncn(COC(CO)CO)c2n1", "note": "[ganciclovir]", "values": [
      {"measurement": "SITH-1 mRNA expression level reduced by", "setting": "[1]; ganciclovir 3 μM", "value": "approximately 20%"},
      {"measurement": "SITH-1 mRNA expression level reduced by", "setting": "[1]; ganciclovir 10 μM", "value": "~40", "unit": "%"},
      {"measurement": "SITH-1 mRNA expression level reduced by", "setting": "[1]; ganciclovir 30 μM", "value": "≥ 80", "unit": "%"},
      {"measurement": "IC50", "setting": "HHV-6 variant B", "value": "~10", "unit": "µM"}
    ]},
    {"molecule": "heparin", "values": [
      {"measurement": "SITH-1 expression in U373 cells", "setting": "HHV-6 HST strain", "value": "suppressed"}
    ]},
    {"molecule": "B1", "values": [
      {"measurement": "intracellular calcium concentration", "setting": "HEK293 cells", "value": "increased"}
    ]}
  ]
}
